Assay results from patent publication US20090018169A1, “Sulfonamide Derivatives for the Treatment of Bacterial Infections” (Laboratoires Serono SA, priority 2006, published 2009).

What follows are compounds tested against recombinant MPTPB enzyme (Mycobacterium tuberculosis, UniProt I6WXK4) (assay: MPTPB enzymatic assay (DiFMUP substrate, fluorescence)). Settings: recombinant MPTPB 50 ng/ml, pH 6.6, 45 minutes at room temperature.
Assay type: biochemical
Protocol: The compounds of the inventions have been tested in the following enzymatic assay:
Five μl of diluted compound or vehicle (100% DMSO) was distributed to a 96 well plate. 55 μl of DiFMUP 72.7 μM diluted in MPTPB buffer (20 mM Bis Tris HCl pH 6.6, 0.1% Brij 35, 1 mM DL-Dithiothreitol) was added, followed by 40 μl of recombinant MPTPB enzyme (50 ng/ml) diluted in MPTPB buffer in order to start the reaction. After 45 minutes incubation at room temperature fluorescence intensity was measured on a Perkin-Elmer Fusion spectrofluorimeter (excitation at 355 nm, emission at 460 nm, for 0.2 s).
Examples of inhibitory activities for compounds of the invention are set out in Table I below.

recombinant MPTPB enzyme, sequence (I6WXK4 whole entry, looked up): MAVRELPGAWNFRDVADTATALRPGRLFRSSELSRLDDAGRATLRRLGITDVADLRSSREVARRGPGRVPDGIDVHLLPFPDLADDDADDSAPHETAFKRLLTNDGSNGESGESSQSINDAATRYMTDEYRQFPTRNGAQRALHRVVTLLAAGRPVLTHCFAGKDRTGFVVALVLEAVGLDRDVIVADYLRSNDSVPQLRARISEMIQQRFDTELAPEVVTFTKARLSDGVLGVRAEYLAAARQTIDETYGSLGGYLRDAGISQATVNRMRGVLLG

Row | Compound | IC50
1 | CCCCCCCCCCCCNS(=O)(=O)c1ccc(CN(Cc2ccccc2F)C(=O)C(=O)O)s1 [Example 6, [({5-[(dodecylamino)sulfonyl]-2-thienyl}methyl)(2-fluorobenzyl)amino]-(oxo)acetic acid] | 740 nM
2 | O=C(O)C(=O)N(Cc1cccc(Cl)c1)Cc1ccc(S(=O)(=O)NCCC(c2ccccc2)c2ccccc2)s1 [Example 14, {(3-chlorobenzyl) [(5-{[(3,3-diphenylpropyl)amino]sulfonyl}-2-thienyl)-methyl]amino}(oxo)acetic acid] | 790 nM
3 | CC(CNS(=O)(=O)c1ccc(CN(Cc2cccc(Cl)c2)C(=O)C(=O)O)s1)c1ccc(Cl)cc1 (stereo not drawn) [Example 24, ((3-chlorobenzyl){[5-({[2-(4-chlorophenyl)propyl]amino}sulfonyl)-2-thienyl]methyl}amino)(oxo)acetic acid] | 770 nM
